Patent US6562978B1, “Cyclic amine compounds as CCR5 antagonists” (Takeda Chemical Industries, Ltd., priority 1999, dated 2003)
Structures can show the parent of a compound that is named as a salt.

System: HIV-1 Ba-L
Assay: Inhibitory effect on HIV-1 infection to MAGI-CCR5 cell (blue cell count, β-galactosidase)
Format: cell-based
Settings: Human immunodeficiency virus 1, BAL, 48 h; final concentration of Test Compound 0.032 μM; MAGI-CCR5 cells; 300PFU HIV-1 Ba-L; 37° C. for 2 days

Row | SMILES | inhibition at 0.032 µM [%]
1 | CC(=O)N1CCC(C(=O)N(CCCN2CCC(Cc3ccc(F)cc3)CC2)c2ccc(Cl)c(Cl)c2)CC1 [Example 468, 1-Acetyl-N-(3,4-dichlorophenyl)-N-{3-[4-(4-fluorobenzyl)-1-piperidinyl]propyl}-4-piperidinecarboxamide Hydrochloride] | 97
2 | CC(=O)N1CCC(C(=O)N(CCCN2CCC(Sc3nc4ccccc4s3)CC2)c2cccc(Cl)c2)CC1 [Example 469, 1-Acetyl-N-(3-chlorophenyl)-N-[3-[4-(2-benzthiazolylthio)-1-piperidinyl]propyl]-4-piperidinecarboxamide Hydrochloride] | 96

Target: T1, human CCR5 (Homo sapiens, UniProt P51681)
T1 construct: expressed in transfected cells; whole cells in the well
T1 sequence (P51681 whole entry): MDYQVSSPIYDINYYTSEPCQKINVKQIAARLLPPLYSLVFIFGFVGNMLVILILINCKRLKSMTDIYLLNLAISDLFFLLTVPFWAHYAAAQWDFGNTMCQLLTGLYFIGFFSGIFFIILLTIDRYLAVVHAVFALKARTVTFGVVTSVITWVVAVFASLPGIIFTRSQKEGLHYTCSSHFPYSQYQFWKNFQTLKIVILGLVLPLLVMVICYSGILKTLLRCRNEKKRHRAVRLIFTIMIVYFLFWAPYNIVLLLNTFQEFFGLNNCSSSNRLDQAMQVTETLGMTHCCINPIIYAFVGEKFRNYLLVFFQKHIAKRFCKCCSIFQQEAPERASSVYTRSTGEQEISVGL
Assay: CCR5 binding assay: inhibition of [125I]-RANTES binding to CHO/CCR5 cells
Settings: 1.0 μM test compound, 100 pM [125I]-RANTES, room temperature 40 minutes, read-out: Inhibition Rate (%) at 1.0 μM
Protocol: (1) Cloning of Human CCR5 Chemokine Receptor
Cloning of CCR5 gene was carried out by PCR (polymerase chain reaction) from human spleen cDNA. With using 0.5 ng of spleen cDNA (Toyobo, QUICK-Clone cDNA) as template, PCR was performed in DNA Thermal Cycler 480 (Perkin-Elmer) (reaction conditions: 30 cycles of 95° C. for 1 minute, 60° C. for 1 minute, and 75° C. for 5 minutes) by adding primer set, 5′-[…]-3′ (25 pmol) and 5′-[…]-3′ (25 pmol), which were designed referring to nucleotide sequence of CCR5 gene reported by Samson et al. (Biochemistry, 35(11), 3362-3367 (1996)) and by using TaKaRa EX Taq (Takara Shuzo). The resultant PCR product was subjected to agarose gel electrophoresis to collect about 1.0 kb DNA fragment, which was subjected to Original TA Cloning Kit (Funakoshi) to carry out cloning of CCR5 gene.
(2) Preparation of Plasmid for Expression of Human […]
The plasmid obtained in the above (1) was digested with restriction enzymes XbaI (Takara Shuzo) and BamHI (Takara Shuzo) and subjected to agarose gel electrophoresis to collect about 1.0 kb DNA fragment. The DNA fragment was mixed with plasmid pcDNA3.1 (Funakoshi) for expression in animal cells, said plasmid being digested with XbaI and BamHI, and they were ligated with DNA Ligation Kit Ver.2 (Takara Shuzo). The resulting plasmid was subjected to transformation of competent cell of E. coli JM109 (Takara Shuzo) to obtain plasmid pCKR5.
(3) Introduction of Plasmid for Expression of Human CCR5 into CHO-K1 Cell and Expression of said Plasmid in CHO-KY Cell
CHO-K1 cells were grown in 750 ml of tissue culture flask (Becton Dickinson) using Ham's F12 medium (Nihon Pharmaceutical) containing 10% fetal calf serum (Life Tech Oriental) and took off with 0.5 g/L trypsin-0.2 g/L EDTA (Life Tech Oriental). The cells were washed with PBS (Life Tech Oriental), centrifuged (1000 rpm, 5 minutes), and suspended in PBS. With using Gene Pulser (Bio-Rad Laboratories), DNA was introduced into the cells under the conditions shown below. That is, to the cuvette of 0.4 cm gap were added 8×10^6 cells and 10 μg of plasmid pCKR5 for expression of human CCR5, and electroporation was carried out under 0.25 kV of voltage and […] of capacitance. The cells were transferred into Ham's F12 medium (Nihon Pharmaceutical) containing 10% fetal calf serum, and cultivated for 24 hours. The cells were again took off and centrifuged, and suspended in Ham's F12 medium (Nihon Pharmaceutical) containing 10% fetal calf serum and 500 μg/ml of geneticin (Life Tech Oriental). The suspension was diluted to give 10^4 cells/ml of the suspension, which was inoculated on 96 well plate (Becton Dickinson) to give geneticin resistant cells. The resulting geneticin resistant cells were cultivated in 96 well plate (Becton Dickinson), and cells expressing CCR5 were selected from the geneticin resistant cells. That is, in assay buffer (Ham's F12 medium containing 0.5% BSA and 20 mM HEPES (Wako Pure Chemical, pH7.2) to which was added 200 pM of [^125I]-RANTES (Amersham) as ligand, binding reaction was carried out at room temperature for 40 minutes, and the buffer was washed with cooled PBS. To the buffer was added 50 μl/well of 1M NaOH, and the mixture was stirred. Radioactivity was determined with γ-counter to select CHO/CCR5 cells which specifically bind to the ligand.
(4) Evaluation of Test Compounds Based on CCR5 Antagonistic Activity
The CHO/CCR5 were inoculated on 96 well microplate (5×10^4 cells/well) and cultivated for 24 hours. The medium was removed by means of suction, and to each well was added assay buffer containing Test Compound (191) and then 100 pM of [^125I]-RANTES (Amersham) as ligand. Binding assay was carried out at room temperature for 40 minutes, and assay buffer was removed by means of suction. Each well was washed twice with cooled PBS, and 200 μl of Microscint-20 (Packard Instrument, Inc.) was added to each well.

Row | SMILES | inhibition at 1 µM [%]
3 | CC(=O)N1CCC(C(=O)N(CCCN2CCC(C#N)(Cc3ccccc3)CC2)c2cccc(Cl)c2)CC1 [Example 291, 1-Acetyl-N-[3-(4-benzyl-4-cyano-1-piperidinyl)propyl]-N-(3-chlorophenyl)-4-piperidinecarboxamide] | 84
4 | CC(=O)N1CCC(C(=O)N(CCCN2CCC(Cc3ccc(-n4cnnn4)cc3)CC2)c2ccc(Cl)c(Cl)c2)CC1 [Example 300, 1-Acetyl-N-(3,4-dichlorophenyl)-N-(3-{4-[4-(1H-tetrazol-1-yl)benzyl]-1-piperidinyl}propyl)-4-piperidinecarboxamide] | 100
5 | CC(=O)N1CCC(C(=O)N(CCCN2CCC(Cc3ccc(NS(C)(=O)=O)cc3)CC2)c2ccc(Cl)c(Cl)c2)CC1 [Example 304, 1-Acetyl-N-(3,4-dichlorophenyl)-N-[3-(4-{4-[(methylsulfonyl)amino]benzyl}-1-piperidinyl)propyl]-4-piperidinecarboxamide] | 99
6 | CS(=O)(=O)c1ccc(S(=O)(=O)C2CCN(CCCN(C(=O)C3CCN(S(C)(=O)=O)CC3)c3ccc(Cl)c(Cl)c3)CC2)cc1 [Example 334, N-(3,4-Dichlorophenyl)-1-(methylsulfonyl)-N-[3-(4-{[4-(methylsulfonyl)phenyl]sulfonyl}-1-piperidinyl)propyl]-4-piperidinecarboxamide] | 100
7 | CCN(C1CCN(CCCN(C(=O)C2CCN(S(C)(=O)=O)CC2)c2ccc(Cl)c(Cl)c2)CC1)S(=O)(=O)c1ccc(S(C)(=O)=O)cc1 [Example 341, N-(3,4-Dichlorophenyl)-N-{3-[4-(ethyl{[4-(methylsulfonyl)phenyl]sulfonyl}amino)-1-piperidinyl]propyl}-1-(methylsulfonyl)-4-piperidinecarboxamide] | 98
8 | Cc1cc(NS(=O)(=O)c2ccc(CC3CCN(CCCN(C(=O)C4CCN(S(C)(=O)=O)CC4)c4ccc(Cl)c(Cl)c4)CC3)cc2)no1 [Example 372, N-(3,4-Dichlorophenyl)-N-{3-[4-(4-{[(5-methyl-3-isoxazolyl)amino]sulfonyl}benzyl)-1-piperidinyl]propyl}-1-(methylsulfonyl)-4-piperidinecarboxamide] | 97
9 | CS(=O)(=O)c1ccc(OC2CCN(CCCN(C(=O)C3CCN(S(C)(=O)=O)CC3)c3ccc(Cl)c(Cl)c3)CC2)cc1 [Example 374, N-(3,4-Dichlorophenyl)-1-(methylsulfonyl)-N-(3-{4-[4-(methylsulfonyl)phenoxy]-1-piperidinyl}propyl)-4-piperidinecarboxamide] | 92
10 | CC(=O)N1CCC(C(=O)N(CCCN2CCC(Cc3ccc(C(N)=O)cc3)CC2)c2ccc(C)c(Cl)c2)CC1 [Example 376, 1-Acetyl-N-(3-{4-[4-(aminocarbonyl)benzyl]-1-piperidinyl}propyl)-N-(3-chloro-4-methylphenyl)-4-piperidinecarboxamide] | 97
11 | CC(C)S(=O)(=O)c1ccc(CC2CCN(CCCN(C(=O)C3CCN(S(C)(=O)=O)CC3)c3ccc(Cl)c(Cl)c3)CC2)cc1 [Example 384, N-(3,4-Dichlorophenyl)-N-(3-{4-[4-(isopropylsulfonyl)benzyl]-1-piperidinyl}propyl)-1-(methylsulfonyl)-4-piperidinecarboxamide] | 100
12 | CCS(=O)(=O)c1ccc(CC2CCN(CCCN(C(=O)C3CCN(S(C)(=O)=O)CC3)c3cccc(Cl)c3)CC2)cc1 [Example 413, N-(3-Chlorophenyl)-N-(3-{4-[4-(ethylsulfonyl)benzyl]-1-piperidinyl}propyl)-1-(methylsulfonyl)-4-piperidinecarboxamide Hydrochloride] | 99
13 | Cc1ccc(N(CCCN2CCC(Cc3ccc(C(N)=O)cc3)CC2)C(=O)C2CCN(S(C)(=O)=O)CC2)cc1Cl [Example 470, N-(3-{4-[4-(Aminocarbonyl)benzyl]-1-piperidinyl}propyl)-N-(3-chloro-4-methylphenyl)-1-(methylsulfonyl)-4-piperidinecarboxamide] | 99

Second part, the molecule after the results:

Row | inhibition at 1 µM [%] | SMILES
14 | 97 | CS(=O)(=O)N1CCC(C(=O)N(CCCN2CCC(Cc3ccc(N4CCOCC4)cc3)CC2)c2ccc(Cl)c(Cl)c2)CC1 [Example 292, N-(3,4-Dichlorophenyl)-1-(methylsulfonyl)-N-{3-[4-(4-morpholinobenzyl)-1-piperidinyl]propyl}-4-piperidinecarboxamide]
15 | 92 | CS(=O)(=O)N1CCC(C(=O)N(CCCN2CCC(Cc3ccc(-n4cnnn4)cc3)CC2)c2ccc(Cl)c(Cl)c2)CC1 [Example 309, N-(3,4-Dichlorophenyl)-1-(methylsulfonyl)-N-(3-{4-[4-(1H-tetrazol-1-yl)benzyl]-1-piperidinyl}propyl)-4-piperidinecarboxamide]
16 | 97 | CS(=O)(=O)Nc1ccc(CC2CCN(CCCN(C(=O)C3CCN(S(C)(=O)=O)CC3)c3ccc(Cl)c(Cl)c3)CC2)cc1 [Example 313-2, N-(3,4-Dichlorophenyl)-1-(methylsulfonyl)-N-[3-(4-{4-[(methylsulfonyl)amino]benzyl}-1-piperidinyl)propyl]-4-piperidinecarboxamide]
17 | 100 | CC(=O)N1CCC(C(=O)N(CCCN2CCC(Cc3ccc(N4CCOCC4)cc3)CC2)c2ccc(Cl)c(Cl)c2)CC1 [Example 318, 1-Acetyl-N-(3,4-dichlorophenyl)-N-{3-[4-(4-morpholinobenzyl)-1-piperidinyl]propyl}-4-piperidinecarboxamide]
18 | 100 | CS(=O)(=O)N1CCC(C(=O)N(CCCN2CCC(Cc3ccc(S(=O)(=O)N4CCOCC4)cc3)CC2)c2ccc(Cl)c(Cl)c2)CC1 [Example 356, N-(3,4-Dichlorophenyl)-1-(methylsulfonyl)-N-(3-{4-[4-(4-morpholinylsulfonyl)benzyl]-1-piperidinyl}propyl)-4-piperidinecarboxamide]
19 | 95 | CS(=O)(=O)N1CCC(C(=O)N(CCCN2CCC(Cc3ccc(C(N)=O)cc3)CC2)c2ccc(Cl)c(Cl)c2)CC1 [Example 362, N-(3-{4-[4-(Aminocarbonyl)benzyl]-1-piperidinyl}propyl)-N-(3,4-dichlorophenyl)-1-(methylsulfonyl)-4-piperidinecarboxamide]
20 | 98 | CS(=O)(=O)c1ccc(CC2CCN(CCCN(C(=O)C3CCN(S(C)(=O)=O)CC3)c3ccc(Cl)c(Cl)c3)CC2)cc1 [Example 420, N-(3,4-Dichlorophenyl)-1-(methylsulfonyl)-N-(3-{4-[4-(methylsulfonyl)benzyl]-1-piperidinyl}propyl)-4-piperidinecarboxamide Hydrochloride]
